Consider 7 molecules from paper PMC9589254, “Disrupting Cu trafficking as a potential therapy for cancer” (Frontiers in Molecular Biosciences, 2022).

In data set [1] the test system is MCF7 breast cancer cells. The experiment in a line: Cell toxicity (MTT assay), MCF7. Format: cell-based. Conditions: copper ions alone, absence of peptides, read-out: LC50 (the source's name). As to the method:
(§1) HEK293 and MCF7 cells were cultured in Dulbecco’s modified Eagle’s medium (DMEM) high glucose medium, with fetal bovine serum (10%), L-glutamine (1%), and PSNS antibiotic (1%). The HepG2 cell line was cultured in Eagle’s minimum essential medium (EMEM), with fetal bovine serum (10%), L-glutamine (1%) and PSNS antibiotic (1%). The THLE-3 cell line was cultured in BGEM medium according to manufacturer’s instructions. All cell line types were cultured at 37°C with 5% CO2. The culture media was changed every 2 days. At 80% confluence, the cells were harvested using 0.25% trypsin and sub-cultured into 75 cm^2 flasks, 24-well plates, or 96-well plates, according to the experiment. The cells were then treated with a range of peptide concentrations suspended in medium without serum for 24 h. After the 24 h treatment, the various toxicity end points were evaluated in the control and peptide-exposed cells.
(§2) Peptides were introduced at various concentrations (three triplicates per concentration) ranging from 0 to 1 mM and incubated with the different cell lines (HEK293/MCF7/HepG2/THLE-3) for 24 h at 37°C. […] Lysates were transferred to 96-well plates and absorption values were collected using a Synergy plate reader at 570 nm wavelength. […] The absorption of the control (without peptide) was determined at 100%; all peptide concentrations were compared to the control sample. […]
(In general: Tetrazolium dyes change colour on reduction, which living cells bring about.)

The test system of data set [2] is HEK293 human kidney cells. The experiment in a line: Cell toxicity (MTT assay), HEK293. Type of data set: cell-based. Conditions: copper ions alone, absence of peptides, read-out: LC50 (the source's name). As to the method:
as §1, §2

In data set [3] the test system is HepG2 liver cancer cells. The experiment in a line: Cell toxicity (MTT assay), HepG2. Conditions: copper ions alone, absence of peptides, read-out: LC50 (the source's name). Format: cell-based. As to the method:
as §1, §2

For data set [4], the target named is T1, ATP7B MBD3-4 (Homo sapiens, UniProt P35670).
T1 construct: […]; made in house; host or cells: E. coli Origami 2
T1 sequence (P35670 234-439): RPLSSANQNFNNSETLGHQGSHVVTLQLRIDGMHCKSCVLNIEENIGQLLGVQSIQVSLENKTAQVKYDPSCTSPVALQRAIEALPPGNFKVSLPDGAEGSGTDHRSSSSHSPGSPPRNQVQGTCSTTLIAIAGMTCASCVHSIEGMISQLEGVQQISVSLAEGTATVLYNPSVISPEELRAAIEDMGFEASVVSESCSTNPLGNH
Nature of the data set: Microscale thermophoresis (MST) binding to MBD3-4. Conditions: for Kd: in the presence of Cu(I) (40 µM), protein 50 nM. As for the experimental part: To better understand the EPR and CD experiments, MST binding experiments were performed. MST is a physical phenomenon whereby biomolecules migrate along a temperature gradient according to their size, hydrodynamic radius, charge, and hydration shell. The target biomolecule is fluorescently labeled and monitored over the course of the experiment. An infra-red laser is used to create a temperature gradient for a given time. Since binding interactions can alter the properties listed above, a binding curve can be created with a ligand titration series. Fixed amounts of labelled MBD3-4 or Atox1 were incubated with increasing concentrations of SMD or KER peptides, in the presence or absence of Cu(I) (Figure 3). […] The measured KD values of the SMD peptide were in the tens of µM range for both Atox1 (39 ± 3 μM) and MBD3-4 (45 ± 4 μM), whereas KER peptide preferentially interacted with Atox1 (20 ± 2 μM). The KD for the interaction with MBD3-4 was slightly higher (36 ± 3 μM).
The labelling was performed with reactive dyes using N-hydroxysuccinimide (NHS)–ester chemistry. The protein concentration was adjusted to 20 μM using HEPES buffer. Briefly, the solid fluorescent dye was dissolved in DMSO at a concentration of about 1.3 mM and mixed thoroughly. Before mixing the protein and dye, the concentration of the dye was adjusted to twice that of the protein using HEPES buffer. Then, the protein and fluorescent dye solutions were mixed at a 1:1 ratio and incubated for 30 min at room temperature in the dark. […] Purity was monitored by measuring the ratio of protein to dye (spectroscopically, for example, by measuring absorption at 280 nm for protein and 650 nm for the dye; molar absorbance: 250,000 M^−1 cm^−1) after the clean-up procedure.
(§3) MBD3-4 and Atox1 were labeled on lysine residues with red fluorescent NT-647-NHS using the NanoTemper labeling kit. […] Normalized fluorescence was detected at a ratio of [Fnorm = Fhot/Finitial]. Fluorescence was measured before IR-laser heating (Finitial) and after a specific IR-laser heating (Fhot) time. […]
Background: In MST a laser heats a spot of the sample, and binding alters the fluorescence response.

For data set [5], the target named is T2, Atox1 (Homo sapiens, UniProt O00244).
T2 construct: made in house; host or cells: E. coli Origami 2 (as for ATP7B MBD3-4)
T2 sequence (O00244 1-68): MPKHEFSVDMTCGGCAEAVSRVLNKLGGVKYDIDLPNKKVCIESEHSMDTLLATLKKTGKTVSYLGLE
Nature of the data set: Microscale thermophoresis (MST) binding to Atox1. To be noted: neither in the presence nor in the absence of Cu(I). As to the method: To better understand the EPR and CD experiments, MST binding experiments were performed. MST is a physical phenomenon whereby biomolecules migrate along a temperature gradient according to their size, hydrodynamic radius, charge, and hydration shell. The target biomolecule is fluorescently labeled and monitored over the course of the experiment. An infra-red laser is used to create a temperature gradient for a given time. Since binding interactions can alter the properties listed above, a binding curve can be created with a ligand titration series. Fixed amounts of labelled MBD3-4 or Atox1 were incubated with increasing concentrations of SMD or KER peptides, in the presence or absence of Cu(I) (Figure 3). […]
The labelling was performed with reactive dyes using N-hydroxysuccinimide (NHS)–ester chemistry. […] Purity was monitored by measuring the ratio of protein to dye (spectroscopically, for example, by measuring absorption at 280 nm for protein and 650 nm for the dye; molar absorbance: 250,000 M^−1 cm^−1) after the clean-up procedure.
as §3

Data set [6] deals with T3, Atox1, fluorescently labelled (NT-647-NHS) (UniProt O00244 1-68, red fluorescent NT-647-NHS on lysine residues).
T3 construct: Atox1 copper metallochaperone; also called metallochaperone Atox1; source: E. coli Origami 2, purified as for ATP7B MBD3-4 (chitin beads, intein self-cleaved with DTT)
T3 sequence (looked up): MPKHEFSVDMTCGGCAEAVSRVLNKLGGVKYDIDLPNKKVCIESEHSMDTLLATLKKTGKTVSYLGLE
The experiment in a line: MST; with Cu(I) 40 uM; labelled protein 50 nM, peptide titrated; 25 mM Na2HPO4 pH 8, 150 mM NaCl, 0.05% Tween 20; 25 C; Monolith NT.115. To be noted: both partners purified.

The target in data set [7] is T3, Atox1, fluorescently labelled …. Nature of the data set: cell-based or functional assay.
Data set [8] deals with ATP7B MBD3-4, fluorescently labelled (NT-647-NHS). Nature of the data set: MST; with Cu(I) 40 uM; labelled protein 50 nM, peptide titrated; 25 mM Na2HPO4 pH 8, 150 mM NaCl, 0.05% Tween 20; 25 C; Monolith NT.115.
For data set [9] the target is unchanged.

Peptide text beside a SMILES is read from it.

Sequence of ATP7B MBD3-4, fluorescently labelled (NT-647-NHS) (P35670 whole entry): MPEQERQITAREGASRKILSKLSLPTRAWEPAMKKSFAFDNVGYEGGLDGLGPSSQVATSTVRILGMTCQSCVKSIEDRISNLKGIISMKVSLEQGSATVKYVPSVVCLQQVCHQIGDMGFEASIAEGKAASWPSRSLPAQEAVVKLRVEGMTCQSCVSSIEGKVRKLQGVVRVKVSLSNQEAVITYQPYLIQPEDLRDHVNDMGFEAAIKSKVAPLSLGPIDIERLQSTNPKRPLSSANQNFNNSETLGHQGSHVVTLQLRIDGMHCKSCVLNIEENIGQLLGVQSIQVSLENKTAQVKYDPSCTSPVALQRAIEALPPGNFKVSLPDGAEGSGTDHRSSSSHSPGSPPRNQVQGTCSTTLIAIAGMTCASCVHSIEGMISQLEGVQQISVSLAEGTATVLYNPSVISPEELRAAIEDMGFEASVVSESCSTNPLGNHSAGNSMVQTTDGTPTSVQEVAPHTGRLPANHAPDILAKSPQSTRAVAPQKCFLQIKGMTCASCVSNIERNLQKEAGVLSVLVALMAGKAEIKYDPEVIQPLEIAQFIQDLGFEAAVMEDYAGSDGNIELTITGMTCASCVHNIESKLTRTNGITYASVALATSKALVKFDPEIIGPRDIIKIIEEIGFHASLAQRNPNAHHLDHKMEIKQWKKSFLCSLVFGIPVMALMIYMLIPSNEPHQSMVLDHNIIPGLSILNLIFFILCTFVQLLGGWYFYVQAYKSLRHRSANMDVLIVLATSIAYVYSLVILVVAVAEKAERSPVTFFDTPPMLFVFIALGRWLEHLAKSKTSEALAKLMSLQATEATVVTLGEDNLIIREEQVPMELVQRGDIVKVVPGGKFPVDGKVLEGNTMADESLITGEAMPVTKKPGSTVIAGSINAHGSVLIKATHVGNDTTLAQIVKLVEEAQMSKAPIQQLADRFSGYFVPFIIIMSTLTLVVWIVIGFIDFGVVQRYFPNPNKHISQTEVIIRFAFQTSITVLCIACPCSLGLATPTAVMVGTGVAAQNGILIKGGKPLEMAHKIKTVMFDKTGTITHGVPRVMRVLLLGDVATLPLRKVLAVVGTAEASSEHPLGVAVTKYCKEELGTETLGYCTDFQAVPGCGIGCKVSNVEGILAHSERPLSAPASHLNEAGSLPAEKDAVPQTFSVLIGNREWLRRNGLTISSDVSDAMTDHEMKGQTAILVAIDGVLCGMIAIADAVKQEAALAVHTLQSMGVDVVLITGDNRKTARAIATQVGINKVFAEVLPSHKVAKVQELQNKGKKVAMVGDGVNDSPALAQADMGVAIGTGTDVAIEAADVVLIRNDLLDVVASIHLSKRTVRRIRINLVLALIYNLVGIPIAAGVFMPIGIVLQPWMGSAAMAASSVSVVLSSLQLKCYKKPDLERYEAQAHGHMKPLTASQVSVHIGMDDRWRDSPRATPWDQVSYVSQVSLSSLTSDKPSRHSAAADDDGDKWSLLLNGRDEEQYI

For the molecule `[Cu+]` [Cu(I)], the CC50 in [1] stood at 165 µM; in data set [2] it was 150 µM; in data set [3], 170 µM.

On to `[Cu+2]` [Cu(II)], for which the CC50 in data set [1] was determined as 180 µM; in data set [2] it was 196 µM; in data set [3], 205 µM.

As to `C[C@@H](O)[C@H](NC(=O)[C@H](CCCNC(=N)N)NC(=O)[C@H](CCC(=O)O)NC(=O)[C@@H](N)CCCCN)C(=O)N[C@@H](CO)C(=O)N[C@@H](CCCNC(=N)N)C(N)=O` [KER, KERTSR] (H-KERTSR-NH2), the Kd in [4] is 36 ± 3 µM.

On to `CC[C@H](C)[C@H](NC(=O)[C@H](CO)NC(=O)[C@H](CCSC)NC(=O)[C@H](CC(=O)O)NC(=O)[C@H](CCSC)NC(=O)[C@@H](N)CO)C(=O)N[C@@H](CCC(=O)O)C(N)=O` [SMD, SMDMSIE] (H-SMDMSIE-NH2), for which the Kd in [4] is 45 ± 4 µM.

For the molecule GAGAAA [Ala], the “Binding interaction with MBD3-4 (MST)” value in [4] (neither in the presence nor in the absence of Cu(I)) was “No binding interaction was observed”. Further, the “Binding interaction with Atox1 (MST)” value in [5] is recorded as “No binding interaction was observed”.

B1: SMD peptide (peptide)
peptide: SMDMSIE
notes: Made on rink-amide resin, which would give a C-terminal amide; also called SMDMSIE; source: synthetic peptide (Fmoc, rink-amide resin, reverse phase HPLC; 95.1% purity)
As to B1, the Kd in data set [6] is 39 ± 3 µM; in data set [8], 45 µM. Further, the “intracellular 64Cu content of MCF7 cells 4 h after 64Cu(II) injection, with peptide against without” value in data set [7] and in [9] was 5 fold each time.

B2: KER peptide (peptide)
peptide: KERTSR
notes: Made on rink-amide resin, which would give a C-terminal amide; also called KERTSR; source: synthetic peptide (Fmoc, rink-amide resin, reverse phase HPLC; 99.4% purity)
As to B2, the Kd in data set [6] was determined as 20 ± 2 µM; in data set [8], 36 µM. Besides, the “intracellular 64Cu content of MCF7 cells 4 h after 64Cu(II) injection, with peptide against without” value in data set [7] and in data set [9] was 3 fold in each case.

By Kd is commonly meant the concentration at which binding is half-saturated.
